Measurements taken from patent US20130244875A1, “METHODS AND COMPOSITIONS FOR IMPROVING PLANT HEALTH” (priority 2006, published 2013).
“And” between values parts separate entries of the source, which are not always exact repeats. Equal entries are not always repeated.

Experiments:
PR5 = test: Induction of PR5 (northern blot) by dicamba or DCSA; format: in vivo, soybean; details: probe specific to PR5; procedures as for PR2
[1] = test system: Xanthomonas campestris pv. malvacearum; test: Bacterial blight inoculation of cotton plants after DCSA spray; format: in vivo; details: two-week old cotton; DCSA spray 24 hours before tooth pick inoculation; unsprayed plants developed necrotic spots
Experimental: In this example, two-week old cotton plants were sprayed with DCSA while control plants received spray application of water only. The plants were inoculated with bacterial blight pathogen (Xanthomonas campestris pv. malvacearum) about 24 hours after the DCSA spray application using a tooth pick inoculation method. As shown in the FIG. 4, the cotton plants inoculated with the bacterial pathogen but not sprayed with DCSA developed necrotic spots, typical symptoms of bacterial blight. […] The results of this experiment indicate that DCSA application reduced bacterial infection on cotton plants when inoculated with bacterial pathogen 24 hours after the DCSA spray.

Meloidogyne incognita = test: Control of cotton root knot nematode (RKN) by DCSA; format: in vivo
Experimental: DCSA was unexpectedly found to control RKN gall formation, improve plant height and reduce number of eggs produced by the nematode in cotton plants (ST474) (Table 5). Ten to fourteen days old cotton plants were treated with DCSA at the rate of 1 lb/A, 24 hrs before inoculating them with RKN eggs. […] Plant height, gall rating, and egg counts were measured 45 days after inoculation. The gall rating scale was 0-5 with 0=no visible galling and 5=heavy galling.

[2] = test system: Verticillium (isolate DPL); test: Verticillium wilt protection in cotton, isolate DPL; format: in vivo, Verticillium dahliae; details: cotton ST6611, DCSA 1 lb/A, glyphosate 0.75 lb/A, 24 hours before inoculation
Text: (§1) DCSA was unexpectedly found to provide protection to cotton plants against Verticillium dahliae, causal agent of cotton wilt disease (Table 6). Cotton plants of the variety ST6611, BOLLGARD 2, ROUNDUP READY FLEX, were inoculated with a moderate isolate (DPL) or a virulent isolate (King) of Verticillium by a seedling dipping method. Seedlings at the first true leaf stage were taken out from the pots, one inch of roots were cut off, seedlings were dipped in a spore slurry for one minute, and then transplanted back in the pots. These strains were isolated and provided by Dr. Terry Wheeler (Texas A&M University, TX USA). DCSA was applied at the rate of 1 lb/A and glyphosate (ROUNDUP WEATHERMAX, Monsanto Company, St. Louis, Mo.) at the rate of 0.75 lb/A 24 hours before inoculation. Protection against Verticillium was measured on a disease severity scale of 1-9:1 being healthy and 9 being dead because of disease, and also was measured as the number of plants that survived out of 10 inoculated plants.

[3] = test system: Verticillium (isolate King); test: Verticillium wilt protection in cotton, isolate King; format: in vivo, Verticillium dahliae; details: cotton ST6611, DCSA 1 lb/A, glyphosate 0.75 lb/A, 24 hours before inoculation
Text: as §1

soybean plants [4] = test: Ozone tolerance of soybeans; format: in vivo; details: 0.5 lbs/A DCSA about 72 hours before, 10 hours
Experimental: Many plants are sensitive to ozone (O3), soybeans are particularly sensitive to ozone damage and show leaf flecking and chlorosis. Ozone can be produced in the atmosphere by a photochemical process in air polluted environments. Soybean production can be affected by ozone when soybeans are cultivated near urban areas or air pollution from urban areas is distributed to agricultural areas where soybeans are grown. An experiment was conducted to determine if DCSA treatment of soybean plants will provide tolerance to oxidative stress caused by ozone. Soybeans were treated with 0.5 lbs/A DCSA approximately 72 hours before exposure to ozone. Controls had no DCSA treatment. Four plants were treated with ozone in one 72 quart sterilite container with a clear plexiglass lid. Ozone was generated at 2 concentrations in the container with the plants at a low rate (2.8 ppm, parts per million) or a high rate (770 ppm) and the plants exposed for 10 hours at these concentrations. Light levels at plant height were ˜400μ Einsteins m-2 s-1, enough to insure photosynthesis. Air in the container was mixed using a small fan to insure proper exposure. Plants were removed from the treatment container and placed in a growth chamber to observe symptom development.

[5] = test system: wheat seed (spring wheat variety); test: Wheat seed germination in DCSA solution; format: in vivo; parameters: key: 1—low; 2—moderate; 3—high; 3+—exceptionally high; details: 22° C., 2DAT, water 1
Experimental: Wheat seed (spring wheat variety) was germinated in a solution of 0.1, 1, 10, 100, or 1000 μM DCSA or water at 22° C. and rated 2 DAT for germination using the same rating scale as used for soybean.

soybean plants [6] = test: Drought tolerance of soybean plants; format: in vivo; details: for Root gdwt / Leaf gdwt / Leaf gfwt / Root gfwt: variety 2 under drought stress; for Root gdwt / Leaf gdwt: dry weight; for Root gdwt: surfactant 1.16; for Leaf gdwt: surfactant 2.37; for Leaf gfwt / Root gfwt: fresh weight; for Leaf gfwt: surfactant 8.01; for Root gfwt: surfactant 12.88
Experimental: Drought tolerance is an important agronomic trait. […] Soybean seeds of two varieties (1 and 2) were planted in soil in 4.5 inch pots, 3 seeds per pot. The seeds were germinated and plants grown to the V1 or V2 growth stage. DCSA was prepared (0.36 grams/60 milliliters in 20 percent acetone with 10 percent surfactant) and the plants sprayed with the DCSA solution at a rate equal to 0.5 pounds/Acre (lb/A) or 1.0 (lb/A) at day 0 or day 3 of the experiment. Water was withheld at day 0. The plants were rated on a scale of 1-4 for drought symptoms; 1—no symptoms; 2—minor symptoms, leaf curling and wilting; 3—substantial symptoms and wilting; 4—dead. The treatments were surfactant only, 0.5 lb/A DCSA, and 1.0 lb/A DCSA. The plants were treated with a surfactant or a DCSA solution, water withheld, and drought symptoms rated 2 days after treatment (2DAT), 3 days after treatment (3DAT), and 3DAT after rehydration (water added to soil saturation and plant recovery from drought symptoms measured). Fresh leaf weight (leaf grams fresh weight, leaf gfwt), fresh root weight (root grams fresh weight, root gfwt), leaf dry weight (leaf grams dry weight, leaf gdwt), and root dry weight (root grams dry weight, root gdwt) were measured.

[7] = individual cotton (ST474) plants 1-8, DCSA 1 lb/A 24 hrs before RKN eggs, 45 days after inoculation

## O=C(O)c1c(Cl)ccc(Cl)c1O [DCSA, 3,6-dichloro salicylic acid]
PR5
  induction of PR5: Induction of PR5
[1]
  bacterial blight symptoms: only localized lesions (HR response) and no increase in bacterial blight symptoms
Meloidogyne incognita; [7]
  Egg Count/pot: 8,160 and 9,120 and 5,200 and 3,720 and 3,360 and 3,040 and 1,800 and 2,200
  Plant Height (cm): 25.4 cm (3×) and 22.2 cm and 17.8 cm and 14.0 cm and 15.9 cm and 12.7 cm
Meloidogyne incognita; individual plants 1-8, 0=no visible galling, 5=heavy galling, 45 days after inoculation
  RKN Gall Rating (0-5): 0 (4×) and 2 and 1 (3×)
Meloidogyne incognita; mean of 8 plants, RKN alone 2.6
  RKN Gall Rating (0-5), Mean: 0.6
Meloidogyne incognita; mean of 8 plants, RKN alone 16.9
  Plant Height (cm), Mean: 19.8 cm
[2]; 1 healthy, 9 dead, inoculated check 5
  Severity rating (1-9): 1
[2]; inoculated check 8
  Plant survival rating (out of 10): 10
[3]; 1 healthy, 9 dead, inoculated check 9
  Severity rating (1-9): 2
[3]; inoculated check 0
  Plant survival rating (out of 10): 10
Soybean plants [4]; high ozone rate 770 ppm, control lower leaves visibly damaged
  ozone damage symptoms: did not show any lower leaf damage
Soybean plants [4]; low ozone rate 2.8 ppm, controls also without symptoms
  ozone damage symptoms: no symptoms were observed
[5]; 0.1 μM DCSA
  germination rating: 1
[5]; 1 μM DCSA
  germination rating: 1
[5]; 10 μM DCSA
  germination rating: 3
[5]; 100 μM DCSA
  germination rating: 2
[5]; 1000 μM DCSA
  germination rating: 3
Soybean plants [6]; soybean Variety 1, 0.5 lb/A DCSA, 2DAT, scale 1 no symptoms - 4 dead, surfactant 2
  average drought rating: 2.25
Soybean plants [6]; soybean Variety 1, 0.5 lb/A DCSA, 3DAT fb rehydration, scale 1-4, surfactant 3.25
  average drought rating: 3.75
Soybean plants [6]; soybean Variety 1, 0.5 lb/A DCSA, 3DAT, scale 1-4, surfactant 3.5
  average drought rating: 4
Soybean plants [6]; soybean Variety 1, 1.0 lb/A DCSA, 2DAT, scale 1-4, surfactant 2
  average drought rating: 1.75
Soybean plants [6]; soybean Variety 1, 1.0 lb/A DCSA, 3DAT fb rehydration, scale 1-4, surfactant 3.25
  average drought rating: 3.5
Soybean plants [6]; soybean Variety 1, 1.0 lb/A DCSA, 3DAT, scale 1-4, surfactant 3.5
  average drought rating: 3.75
Soybean plants [6]; soybean Variety 2, 0.5 lb/A DCSA, 2DAT, scale 1 no symptoms - 4 dead, surfactant 1.5
  average drought rating: 1
Soybean plants [6]; soybean Variety 2, 0.5 lb/A DCSA, 3DAT fb rehydration, scale 1-4, surfactant 3
  average drought rating: 2.5
Soybean plants [6]; soybean Variety 2, 0.5 lb/A DCSA, 3DAT, scale 1-4, surfactant 3.5
  average drought rating: 2.5
Soybean plants [6]; soybean Variety 2, 1.0 lb/A DCSA, 2DAT, scale 1-4, surfactant 1.5
  average drought rating: 1.25
Soybean plants [6]; soybean Variety 2, 1.0 lb/A DCSA, 3DAT fb rehydration, scale 1-4, surfactant 3
  average drought rating: 2.5
Soybean plants [6]; soybean Variety 2, 1.0 lb/A DCSA, 3DAT, scale 1-4, surfactant 3.5
  average drought rating: 2.5
Soybean plants [6]; 0.5 lb/A DCSA
  Root gdwt: 1.25 g
  Leaf gdwt: 1.43 g
  Leaf gfwt: 9.45 g
  Root gfwt: 13.74 g
Soybean plants [6]; 1.0 lb/A DCSA
  Root gdwt: 1.34 g
  Leaf gdwt: 2.20 g
  Leaf gfwt: 13.94 g
  Root gfwt: 15.40 g
